Assay results as given in US11566017B2, “Dihydroquinazolinone compound or pharmacologically acceptable salt, and cell growth inhibitor” (RIKEN, priority 2017, dated 2023).

Legend:
tankyrase 1 (TNKS1) = target: T1, tankyrase 1 (TNKS1) (Homo sapiens, UniProt O95271); test: Tankyrase inhibitory activity test (ELISA, auto-poly(ADP-ribosyl)ation), tankyrase 1; assay type: biochemical; conditions: Flag tagged tankyrase 1 (1,024-1,327aa, SAM+PARP); read-out: TNKS1 (inhibitory activity against tankyrase 1, IC50)
T1 construct: tankyrase 1 (1,024-1,327aa, SAM+PARP); made in house; host or cells: cell-free protein expression system
Protocol: (§1) The enzymatic activity of tankyrase 1 and the enzymatic activity of tankyrase 2 were measured by the ELISA method based on assessment of auto-poly(ADP-ribosyl)ation to evaluate the tankyrase inhibitory activity of the compound prepared in each of Examples (test compound) (inhibitory activity against tankyrase 1 (TNKS1) and inhibitory activity against tankyrase 2 (TNKS2)). First, Flag tagged tankyrase 1 (1,024-1,327aa, SAM+PARP) and tankyrase 2 (613-1,116aa, ANK5+SAM+PARP) were synthesized with a cell-free protein expression system, and diluted with a Tris buffer solution (50 mM Tris-HCl (pH 8.0), 150 mM NaCl, 10% glycerol). 50 μL of the diluted tankyrase 1 or tankyrase 2 was added to a plate with an anti-FLAG M2 monoclonal antibody immobilized thereon (Anti-FLAG High-Sensitivity M2-Coated Plate) (Sigma-Aldrich), and the plate was left standing overnight at 4° C. Thereafter, the plate was washed four times with a PBS (PBST) buffer containing 0.1% Triton X-100. For Example 84, the Anti-FLAG High-Sensitivity M2-Coated Plate was replaced by an immunoplate (Thermo Fisher Scientific), tankyrase 1 or tankyrase 2 was immobilized on the immunoplate, and the immunoplate was then blocked with Blocking One (nacalai tesque), then washed with a PBS (PBST) buffer, and used as the following plate.
(§2) Subsequently, the test compound diluted with an assay buffer (50 mM Tris-HCl (pH 8.0), 4 mM MgCl2, 0.2 mM DTT) (DMSO was used as a control) was added to each well of the plate, and the plate was left standing at room temperature for 10 minutes. Thereafter, a biotin-labeled NAD solution (225 μM NAD, 25 μM 6-Biotin-17-NAD (Travigen, Inc.)) was added and mixed as a donor substrate, and the mixture was reacted at 30° C. for 45 minutes. To blank wells was added distilled water instead of the biotin-labeled NAD solution. After the reaction, the plate was washed with a PBST buffer four times. Thereafter, HRP (horseradish peroxidase)-labeled streptavidin (Travigen, Inc.) was diluted with a PBS buffer by 1,000 times, and added to each well, and the mixture was reacted at room temperature for 20 minutes. The plate was washed with a PBST buffer four times, a chemiluminescent substrate solution TACS-Sapphire (Travigen, Inc.) was then added to each well, the mixture was reacted at room temperature for 20 minutes, and the chemiluminescence intensity was measured using a chemiluminescence measuring apparatus. For Example 84, the streptavidin was diluted by 5,000 times, the chemiluminescent substrate solution TACS-Sapphire was replaced by an ELISA POD substrate TMB solution easy (nacalai tesque), the mixture was reacted at room temperature for 30 minutes, and the chemiluminescence intensity was measured using a chemiluminescence measuring apparatus.
(§3) The residual enzymatic activity in the presence of the test compound was determined from the following expression. On the basis of the residual enzymatic activity at each of multiple concentrations of the test compound, the enzyme inhibitory activity was calculated in terms of a 50%-inhibition concentration (IC50 value) using data analysis software Origin (LightStone Corp.). Residual activity (%)={(chemiluminescence intensity with test compound added)−(chemiluminescence intensity of blank)}/{(chemiluminescence intensity of control)−(chemiluminescence intensity of blank)}

tankyrase 2 (TNKS2) = target: T2, tankyrase 2 (TNKS2) (Homo sapiens, UniProt Q9H2K2); test: Tankyrase inhibitory activity test (ELISA, auto-poly(ADP-ribosyl)ation), tankyrase 2; assay type: biochemical; conditions: Flag tagged tankyrase 2 (613-1,116aa, ANK5+SAM+PARP); read-out: TNKS2 (inhibitory activity against tankyrase 2, IC50)
T2 construct: tankyrase 2 (613-1,116aa, ANK5+SAM+PARP); made in house; host or cells: cell-free protein expression system
Protocol: as §1, §2, §3

[1] = tested on: human colorectal cancer cell line COLO-320DM; test: Cell proliferation inhibitory activity test (Celltiter-Glo); assay type: cell-based; conditions: COLO-320DM cells, 96 hours
Protocol: The cell proliferation inhibitory activity of the compound, which had been prepared in each of Examples, against the human colorectal cancer cell line COLO-320DM was evaluated by Celltiter-Glo Luminescent Cell Viability Assay (Promega Corporation; G7573). COLO-320DM cells were cultured in RPMI-1640 medium containing 2 mM glutamine (Wako Pure Chemical Industries, Ltd; 189-02025) supplemented with 10% fetal bovine serum. The cultured cells were washed with PBS, and then dissociated with trypsin/EDTA, and a cell solution with 3×10^4 cells/mL was prepared.
Subsequently, the cell solution was seeded in a 96-well microplate (Thermo/Nunc Company; 136101) in an amount of 70 μL per well, and cultured overnight under the condition of 37° C. and 5% CO2. Next day, a test compound solution obtained by diluting the test compound (DMSO solution) with a cell culture medium (final concentration of DMSO was 1%) was added in an amount of 10 μL per well, and the mixture was reacted under the condition of 37° C. and 5% CO2 for 96 hours (a 1% DMSO solution was used as a control). Thereafter, a Celltiter-GloLuminescent Cell Viability Assay reagent (Promega Corporation; G7573) was added in an amount of 80 μL per well, the mixture was stirred with a shaker for 2 minutes while light was blocked with an aluminum foil, and the mixture was incubated at room temperature for 10 minutes.
Thereafter, a luminescence signal was measured with a luminometer (Biotech Company; Synergy). The ratio of cell proliferation in each compound addition group to cell proliferation in a control group containing no test compound solution, where cell proliferation in the control group is 100%, was calculated and the value of a compound concentration necessary for suppressing the amount of residual cells to 50% of that in the control (GI50) was calculated as the cytostatic activity. […] An unevaluated test compound was designated as “NT”.

T1 sequence (O95271 1024-1327): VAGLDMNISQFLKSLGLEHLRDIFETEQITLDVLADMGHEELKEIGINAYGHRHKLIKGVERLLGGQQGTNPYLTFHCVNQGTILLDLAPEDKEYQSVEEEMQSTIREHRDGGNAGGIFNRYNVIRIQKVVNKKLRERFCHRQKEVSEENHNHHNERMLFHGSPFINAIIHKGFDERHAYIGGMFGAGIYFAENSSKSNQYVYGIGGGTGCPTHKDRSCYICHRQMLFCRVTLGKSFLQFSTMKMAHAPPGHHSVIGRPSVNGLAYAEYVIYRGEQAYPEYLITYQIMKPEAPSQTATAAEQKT

IC50 (tankyrase 1 (TNKS1)) [nM]	IC50 (tankyrase 2 (TNKS2)) [nM]	GI50 [1] [nM]	Structure (SMILES)
5 to 20	5 to 20	1000 to 10000	CN1c2ccccc2C(=O)NC1c1n[nH]nc1-c1ccc(Br)cc1 (stereo not drawn) [Example 60, 2-[4-(4-Bromophenyl)-2H-1,2,3-triazol-5-yl]-1-methyl-2,3-dihydroquinazolin-4-one]
5 to 20	5 to 20	1000 to 10000	COc1ccc(-c2n[nH]nc2C2NC(=O)c3cccc4c3N2CCO4)cc1 (stereo not drawn) [Example 68, 2-[5-(4-Methoxyphenyl)-2H-1,2,3-triazol-4-yl]-10-oxa-1,3-diazatricyclo[7.3.1.0^5,13]trideca-5,7,9(13)-trien-4-one]
20 to 50	20 to 50	1000 to 10000	COc1ccc(-c2n[nH]nc2C2NC(=O)c3cccc(C(F)(F)F)c3N2)cc1 (stereo not drawn) [Example 71, 2-[5-(4-Methoxyphenyl)-2H-1,2,3-triazol-4-yl]-8-(trifluoromethyl)-2,3-dihydro-1H-quinazolin-4-one]
< 5	< 5	1000 to 10000	COc1ccc(-c2c[nH]nc2C2NC(=O)c3cccc(C)c3N2)cc1 (stereo not drawn) [Example 87, 2-[4-(4-Methoxyphenyl)-1H-pyrazol-3-yl]-8-methyl-2,3-dihydro-1H-quinazolin-4-one]
5 to 20	5 to 20	1000 to 10000	Cc1cccc2c1NC(c1n[nH]nc1-c1ccc(OCC(F)(F)F)cc1)NC2=O (stereo not drawn) [Example 72, 8-Methyl-2-[4-[4-(2,2,2-trifluoroethoxy)phenyl]-2H-1,2,3-triazol-5-yl]-2,3-dihydro-1H-quinazolin-4-one]
5 to 20	5 to 20	1000 to 10000	CCOc1ccc(-c2n[nH]nc2C2NC(=O)c3cccc4c3N2CC4)cc1 (stereo not drawn) [Example 75, 11-[5-(4-Ethoxyphenyl)-2H-1,2,3-triazol-4-yl]-1,10-diazatricyclo[6.3.1.0^4,12]dodeca-4(12),5,7-trien-9-one]
5 to 20	5 to 20	< 1000	CCOc1ccc(-c2n[nH]nc2C2NC(=O)c3cccc(CC)c3N2)cc1 (stereo not drawn) [Example 80, 2-[5-(4-Ethoxyphenyl)-2H-1,2,3-triazol-4-yl]-8-ethyl-2,3-dihydro-1H-quinazolin-4-one]
5 to 20	< 5	≥ 10000	Cc1cccc2c1NC(c1n[nH]nc1-c1ccc(Br)cc1)NC2=O (stereo not drawn) [Example 66, 2-[4-(4-Bromophenyl)-2H-1,2,3-triazol-5-yl]-8-methyl-2,3-dihydro-1H-quinazolin-4-one]

Further lines, the compound ahead of its results:

Structure (SMILES)	IC50 (tankyrase 1 (TNKS1)) [nM]	IC50 (tankyrase 2 (TNKS2)) [nM]	GI50 [1] [nM]
COc1ccc(-c2n[nH]nc2C2NC(=O)c3ccccc3N2)cc1 (stereo not drawn) [Example 59, 2-[5-(4-Methoxyphenyl)-2H-1,2,3-triazol-4-yl]-2,3-dihydro-1H-quinazolin-4-one]	20 to 50	< 5	1000 to 10000
CN1c2ccccc2C(=O)NC1c1c[nH]nc1-c1ccc(OC(F)(F)F)cc1 (stereo not drawn) [Example 48, 1-Methyl-2-[3-(4-(trifluoromethoxy)phenyl)-1H-pyrazol-4-yl]-2,3-dihydroquinazolin-4-one]	20 to 50	5 to 20	1000 to 10000
CN1c2ccccc2C(=O)NC1c1c[nH]nc1-c1cccc(F)c1 (stereo not drawn) [Example 28, 2-[3-(3-Fluorophenyl)-1H-pyrazol-4-yl]-1-methyl-2,3-dihydroquinazolin-4-one]	< 5	5 to 20	1000 to 10000
CN1c2ccccc2C(=O)NC1c1c[nH]nc1-c1cccc(NC(=O)Nc2ccccc2)c1 (stereo not drawn) [Example 5, 1-[3-[4-(1-Methyl-4-oxo-2,3-dihydroquinazolin-2-yl)-1H-pyrazol-3-yl]phenyl]-3-phenylurea]	5 to 20	5 to 20	≥ 10000
CCOc1ccc(-c2n[nH]cc2C2NC(=O)c3ccccc3N2C)cc1 (stereo not drawn) [Example 46, 2-[5-(4-Ethoxyphenyl)-1H-pyrazol-4-yl]-1-methyl-2,3-dihydroquinazolin-4-one]	< 5	< 5	1000 to 10000
CN1c2ccccc2C(=O)NC1c1n[nH]nc1-c1ccc(-c2ccc(N3CCOCC3)cc2)cc1 (stereo not drawn) [Example 7, 1-Methyl-2-[4-[4-(4-morpholin-4-ylphenyl)phenyl]-2H-1,2,3-triazol-5-yl]-2,3-dihydroquinazolin-4-one]	20 to 50	5 to 20	≥ 10000
CN1c2ccccc2C(=O)NC1c1c[nH]nc1-c1cccc(-c2ccccc2)c1 (stereo not drawn) [Example 22, 1-Methyl-2-[3-(3-phenylphenyl)-1H-pyrazol-4-yl]-2,3-dihydroquinazolin-4-one]	< 5	< 5	≥ 10000
COc1ccc(-c2n[nH]cc2C2NC(=O)c3cccc(C)c3N2)cc1F (stereo not drawn) [Example 56, 2-[5-(3-Fluoro-4-methoxyphenyl)-1H-pyrazol-4-yl]-8-methyl-2,3-dihydro-1H-quinazolin-4-one]	5 to 20	5 to 20	≥ 10000
CN1c2ccccc2C(=O)NC1c1c[nH]nc1-c1ccc(N)cc1 (stereo not drawn) [Example 3, 2-[3-(4-Aminophenyl)-1H-pyrazol-4-yl]-1-methyl-2,3-dihydroquinazolin-4-one]	5 to 20	5 to 20	≥ 10000
CN1CCN(Cc2ccc(-c3cccc(-c4n[nH]cc4C4NC(=O)c5ccccc5N4C)c3)cc2)CC1 (stereo not drawn) [Example 32]	20 to 50	20 to 50	≥ 10000
CN1CCN(c2cccc(-c3ccc(-c4[nH]ncc4C4NC(=O)c5ccccc5N4C)cc3)c2)CC1 (stereo not drawn) [Example 38, 1-Methyl-2-[5-[4-[3-(4-methylpiperazin-1-yl)phenyl]phenyl]-1H-pyrazol-4-yl]-2,3-dihydroquinazolin-4-one]	20 to 50	20 to 50	1000 to 10000
CN1CCN(Cc2cccc(-c3ccc(-c4n[nH]cc4C4NC(=O)c5ccccc5N4C)cc3)c2)CC1 (stereo not drawn) [Example 26, 1-Methyl-2-[5-[4-[3-[(4-methylpiperazin-1-yl)methyl]phenyl]phenyl]-1H-pyrazol-4-yl]-2,3-dihydroquinazolin-4-one]	20 to 50	5 to 20	≥ 10000
CN1c2ccccc2C(=O)NC1c1c[nH]nc1-c1ccc([N+](=O)[O-])cc1 (stereo not drawn) [Example 16, 1-Methyl-2-[3-(4-nitrophenyl)-1H-pyrazol-4-yl]-2,3-dihydroquinazolin-4-one]	20 to 50	20 to 50	≥ 10000
